# Measurements from patent US8435966B2, “Associations of xanthogenates and cyclodextrins, and their use” (Biosphings AG, priority 2006, dated 2013).
# Like-named read-outs stand apart in the source and are kept apart here.
# Columns and labels:
# [1] = Stabilization of various xanthates by methyl-beta-cyclodextrin at 60° C. (decomposition in water, detected by pH value and calibration curves); conditions: 24 h at 60° C.; for % Decomposition − Cyclodextrin / % Decomposition + Cyclodextrin: 10 mg/ml xanthate in water; for % Decomposition − Cyclodextrin: absence of cyclodextrin; for % Decomposition + Cyclodextrin: presence of 100 mg/ml methyl-beta-cyclodextrin; for Stabilization factor: decomposition without / with methyl-beta-cyclodextrin
# Method: Solutions each containing 10 mg/ml methylxanthate, propylxanthate, butylxanthate, heptyixanthate, hexylxanthate, decylxanthate, isopropylxanthate, or tricyclo[5,2,1,0^2,6]-decylxanthate (D 609) in water were incubated for 24 h at 60° C. either in the presence or absence of 100 mg/ml methyl-beta-cyclodextrin. Xanthates decompose in aqueous medium into the corresponding alcohol, CS2, and, depending on the type of xanthate salt, KOH or NaOH. The decomposition of xanthates can therefore be detected quantitatively by measuring the pH value and using calibration curves.
# erythrocytes = test: Hemolytic effect of xanthates (OD 450 of supernatants of diluted blood); conditions: for 50% hemolysis (IC50): 30 minutes at room temperature
# Method: Venous blood was taken from female Balb C mice by retroorbital puncture and heparin was added to the blood. The blood was then diluted 1:75 using phosphate-buffered saline. Methyl-, butyl, and hexylxanthate as well as exo/exo D 609 were dissolved in phosphate-buffered saline (stock solution 10 mg/ml). 100 μl diluted blood and 100 μl diluted xanthate solution each were placed in 96-well microtiter plates to obtain final concentrations of 2, 1, 0.5, 0.25, 0.125, 0.063, and 0.031 mg/ml of xanthate. Saline served as the control. After incubation at room temperature for 30 minutes, a centrifugation at 5,000 g for 5 min was performed and the supernatants were removed. The absorption of the supernatants at 450 nm (OD 450) was measured using an ELISA-Reader. Dose-response curves (FIGS. 2 and 3) were used to determine the concentrations at which 50% of the maximal absorption was reached and at which, therefore, 50% of the erythrocytes were lysed (IC50).
# [2] = Stabilization of exo/exo D 609 by cyclodextrin at room temperature (decomposition in water, pH after 45 days); type: physicochemical; conditions: for decomposition / pH value of the solution: after 45 days
# Method: The xanthate, D 609, decomposes in aqueous solutions to form the tricyclodecanol, CS2, and KOH. […] The pH value of the individual solutions was determined after 45 days using PANPEHA strips (Schleicher & Schüll). […] The pH value of the solution containing cyclodextrin was measured to be 7.0. This corresponds to <0.1% decomposition. Accordingly, the rate of decomposition is at least 1000-fold lower in the presence of cyclodextrin.
# female Balb C mice = test: Toxicity after intravenous application (survival 48 h after injection into the lateral tail vein); type: in vivo; conditions: for Animals receiving injections/surviving animals: 48 h
# Method: The exo/exo isomer of D 609 or hexylxanthate were dissolved in 0.9% NaCl or 0.9% NaCl/30% hydroxy-beta-cyclodextrin at a concentration of 30 mg/ml. Subsequently, dilutions were prepared using 0.9% NaCl solution to obtain concentrations of 30, 20, 10, and 5 mg/ml D 609 or hexylxanthate. Three female Balb C mice each received injections of 0.2 ml/20 g body weight of each solutions into the lateral tail vein. The animals were monitored for 48 h after injection and survival was recorded.
# [3] = test system: DNA and RNA virus species; tumor cells; conditions: from literature and U.S. Pat. No. 4,602,037; cited from earlier work
# [4] = test system: models of Alzheimer's disease; conditions: from literature; cited from earlier work
# multiple sclerosis model = conditions: from literature; cited from earlier work
# animal model of stroke = conditions: from literature; cited from earlier work
# lung edemas = conditions: from literature; cited from earlier work
# HSV-1, strain Angelotti = test: Antiviral efficacy, plaque number in Calu-6 cells infected with HSV-1; type: cell-based; conditions: addition of cyclodextrin 1:1 or 1:2 to D609, Calu-6 cells, 72 h
# Method: Human lung carcinoma cells (Calu-6) in D-MEM medium (supplemented with 10% fetal calf serum) were seeded in 24-well plates (Greiner) (3×10^6 cells/plate each). After incubation for 24 h at 37° C. in a 5% CO2 atmosphere, the medium was decanted and 0.1 ml viral suspension (HSV-1, strain Angelotti, 200 plaque-forming units/ml) were added. After incubation at 37° C. for one hour, fresh medium (DMEM, 10% serum, 0.85 g NaHCO3/I) containing D609 (exo/exo isomer) or a mixture of D609 and beta-hydroxypropyl-cyclodextrin (b-HP) (Sigma, Munich, No 33, 260-7) was added.
# The following concentrations were set-up:
# After 72 h, the medium was decanted and the plates were fixed with 3% formalin and stained with 0.5% crystal violet. After the plates were dried, the number of plaques per well was determined and the means±standard deviation were calculated. The results (dose-response curves) are plotted in FIG. 4. […] Accordingly, the addition of beta-hydroxypropyl-cyclodextrin has no influence on the antiviral activity of D609.
# [5] = Stabilization effect of different cyclodextrins on D 609 at 60° C. (RP-18 thin layer plate); type: physicochemical; conditions: exo/exo D 609 with cyclodextrin, eight days at 60° C., TLC spots under UV (FIG. 1)
# Method: Exo/exo D 609 was dissolved in solutions (100 mg/ml) containing various cyclodextrins (10 mg/ml). The samples were incubated for eight days at 60° C. 10 μl of each sample were diluted with 90 μl of water and 100 μl ethylacetate/3 mg/ml p-bromoacetophenone were added. After shaking for 30 minutes, 5 μl of the ethylacetate phase each were applied to a RP-18 thin layer plate and the plate was placed for 15 minutes in a TLC chamber containing acetonitrile as mobile phase. A freshly prepared solution of 9 mg/ml D 609 plus 1 mg/ml of a D 609 solution that had been incubated at 95° C. for 48 h (decomposition control) was used as calibration sample. The D 609-specific spots were visualized under UV light and photographed.
# [6] = 10 mg/ml in water with 100 mg/ml cyclodextrin
# [7] = in the presence of cyclodextrin
# [8] = xanthate alone (absence of cyclodextrin)
compound,measurement,setting,value
"CCCCOC(=S)S [Butyl, butylxanthate]",% Decomposition − Cyclodextrin,[1],20%
same,% Decomposition + Cyclodextrin,[1],1%
same,Stabilization factor,[1],20
same,hemolytic effect / dose-response curves in the presence versus absence of cyclodextrin,erythrocytes; FIGS. 2 and 3,no significant differences
same,concentration of complete hemolysis,erythrocytes; absence of cyclodextrin,1000 µg/mL
same,50% hemolysis (IC50),erythrocytes; absence of cyclodextrin,800 µg/mL
same,concentration of complete hemolysis,erythrocytes; presence of cyclodextrin,1000 µg/mL
same,50% hemolysis (IC50),erythrocytes; presence of cyclodextrin,650 µg/mL
S=C([S-])OC1CC2CC1C1CCCC21.[K+] (stereo not drawn) [D 609],% Decomposition − Cyclodextrin,[1],20%
same,% Decomposition + Cyclodextrin,[1],1%
same,decomposition,[2]; 10 mg/ml in pure water,complete decomposition
same,pH value of the solution,[2]; 10 mg/ml in pure water,12.5
same,decomposition,[2]; [6],< 0.1%
same,pH value of the solution,[2]; [6],7.0
same,rate of decomposition lower in the presence of cyclodextrin,"[2]; 45 days, with versus without cyclodextrin",at least 1000 fold
same,Animals receiving injections/surviving animals,female Balb C mice; Dose 50 mg/kg,3/3
same,Animals receiving injections/surviving animals,female Balb C mice; Dose 100 mg/kg,3/0
same,Animals receiving injections/surviving animals,female Balb C mice; Dose 200 mg/kg,3/0
same,Animals receiving injections/surviving animals,female Balb C mice; Dose 300 mg/kg,3/0
same,"number of surviving animals, effect of cyclodextrin",female Balb C mice; at the higher D 609-doses,clearly increased
same,LD50,female Balb C mice; [7],250 mg/kg
same,LD50,female Balb C mice; [8],75 mg/kg
same,concentration of complete hemolysis,erythrocytes,500 µg/mL
same,hemolytic effect / dose-response curves in the presence versus absence of cyclodextrin,erythrocytes,reduced strongly
same,increase of the IC50 by a factor,erythrocytes,6.4
same,50% hemolysis (IC50),erythrocytes; absence of cyclodextrin,125 µg/mL
same,50% hemolysis (IC50),erythrocytes; presence of cyclodextrin,800 µg/mL
same,known activity,[3],antiviral and antitumoral activity
same,effect in models of Alzheimer's disease,[4],protective properties
same,effect in a multiple sclerosis model,multiple sclerosis model,protective effect
same,effect in an animal model of stroke,animal model of stroke,protective effect
same,effect on lung edemas,lung edemas,protection from lung edemas
"CCCCCCCCCCOC(=S)S [Decyl, decylxanthate]",% Decomposition − Cyclodextrin,[1],10%
same,% Decomposition + Cyclodextrin,[1],1%
CCOC(=S)S [Ethyl],% Decomposition − Cyclodextrin,[1],10%
same,% Decomposition + Cyclodextrin,[1],1%
same,Stabilization factor,[1],10
"CCCCCCOC(=S)S [Hexylxanthate, hexylxanthate]",% Decomposition − Cyclodextrin,[1],20%
same,% Decomposition + Cyclodextrin,[1],1%
same,Animals receiving injections/surviving animals,female Balb C mice; Dose 50 mg/kg,3/3
same,Animals receiving injections/surviving animals,female Balb C mice; Dose 100 mg/kg,3/2
same,Animals receiving injections/surviving animals,female Balb C mice; Dose 200 mg/kg,3/0
same,Animals receiving injections/surviving animals,female Balb C mice; Dose 300 mg/kg,3/0
same,LD50,female Balb C mice; [7],130 mg/kg
same,LD50,female Balb C mice; [8],130 mg/kg
same,concentration of complete hemolysis,erythrocytes,500 µg/mL
same,hemolytic effect / dose-response curves in the presence versus absence of cyclodextrin,erythrocytes,reduced strongly
same,increase of the IC50 by a factor,erythrocytes,2.5
same,50% hemolysis (IC50),erythrocytes; absence of cyclodextrin,300 µg/mL
same,50% hemolysis (IC50),erythrocytes; presence of cyclodextrin,750 µg/mL
"CC(C)OC(=S)S [Isopropyl, isopropylxanthate]",% Decomposition − Cyclodextrin,[1],20%
same,% Decomposition + Cyclodextrin,[1],1%
same,Stabilization factor,[1],20
"COC(=S)S [Methyl, methylxanthate]",% Decomposition − Cyclodextrin,[1],50%
same,% Decomposition + Cyclodextrin,[1],1%
same,Stabilization factor,[1],50
same,hemolytic effect / dose-response curves in the presence versus absence of cyclodextrin,erythrocytes; FIGS. 2 and 3,no significant differences
same,concentration of complete hemolysis,erythrocytes; absence of cyclodextrin,1000 µg/mL
same,50% hemolysis (IC50),erythrocytes; absence of cyclodextrin,600 µg/mL
same,concentration of complete hemolysis,erythrocytes; presence of cyclodextrin,1000 µg/mL
same,50% hemolysis (IC50),erythrocytes; presence of cyclodextrin,650 µg/mL
"CCCOC(=S)S [Propyl, propylxanthate]",% Decomposition − Cyclodextrin,[1],20%
same,% Decomposition + Cyclodextrin,[1],2%
same,Stabilization factor,[1],10
beta-hydroxypropyl-cyclodextrin,influence on the antiviral activity of D609,"HSV-1, strain Angelotti",no influence
methyl-beta-cyclodextrin,protective effect from decomposition of D 609,[5],works the best by far
